Patent US20260000075A1, “HERBICIDAL MALONIC ACID MONOAMIDES AND MALONAMIDE ESTERS” (BASF SE, priority 2022, published 2026)

Experiments:
ALOMY = experiment: greenhouse post-emergence herbicidal test; format: in vivo, Alopercurus myosuroides; settings: post-emergence method, scale from 0 to 100
Excerpt: (§1) The culture containers used were plastic flowerpots containing loamy sand with approximately 3.0% of humus as the substrate. The seeds of the test plants were sown separately for each species.
(§2) For the post-emergence treatment, the test plants were first grown to a height of 3 to 15 cm, depending on the plant habit, and only then treated with the active ingredients which had been suspended or emulsified in water. For this purpose, the test plants were either sown directly and grown in the same containers, or they were first grown separately as seedlings and transplanted into the test containers a few days prior to treatment.
(§3) Depending on the species, the test plants were kept at 10-25° C. or 20-35° C., respectively.
(§4) The test period extended over 2 to 4 weeks. During this time, the test plants were tended, and their response to the individual treatments was evaluated.
(§5) Evaluation was carried out using a scale from 0 to 100. 100 means no emergence of the test plants, or complete destruction of at least the aerial moieties, and 0 means no damage, or normal course of growth. A good herbicidal activity is given at values of 70 to <90 and a very good herbicidal activity is given at values of 90 to 100.
(§6) The test plants used in the greenhouse experiments were of the following species: […]

ECHCG = experiment: greenhouse pre-emergence herbicidal test; format: in vivo, Echinocloa crus-galli; settings: pre-emergence method, scale from 0 to 100
Excerpt: as §1
(§7) For the pre-emergence treatment, the active ingredients, which had been suspended or emulsified in water, were applied directly after sowing by means of finely distributing nozzles. The containers were irrigated gently to promote germination and growth and subsequently covered with transparent plastic hoods until the test plants had rooted.
(§8) This cover caused uniform germination of the test plants, unless this had been impaired by the active ingredients.
as §3, §4, §5, §6

SETFA = experiment: greenhouse pre-emergence herbicidal test; format: in vivo, Setaria faberi; settings: pre-emergence method, application rate 0.500 kg/ha, scale from 0 to 100
Excerpt: as §1, §7, §8, §3, §4, §5, §6

APESV = experiment: greenhouse pre-emergence herbicidal test; format: in vivo, Apera spica-venti; settings: pre-emergence method, scale from 0 to 100
Excerpt: as §1, §7, §8, §3, §4, §5, §6

AMARE [1] = experiment: greenhouse pre-emergence herbicidal test; format: in vivo, Amaranthus retroflexus; settings: pre-emergence method, scale from 0 to 100
Excerpt: as §1, §7, §8, §3, §4, §5, §6

SETVI [2] = experiment: greenhouse pre-emergence herbicidal test; format: in vivo, Setaria viridis; settings: pre-emergence method, application rate 0.500 kg/ha, scale from 0 to 100
Excerpt: as §1, §7, §8, §3, §4, §5, §6

AVEFA = experiment: greenhouse post-emergence herbicidal test; format: in vivo, Avena fatua; settings: post-emergence method, application rate 1.000 kg/ha, scale from 0 to 100
Excerpt: as §1, §2, §3, §4, §5, §6

AMARE [3] = experiment: greenhouse post-emergence herbicidal test; format: in vivo, Amaranthus retroflexus; settings: post-emergence method, application rate 1.000 kg/ha, scale from 0 to 100
Excerpt: as §1, §2, §3, §4, §5, §6

LOLMU = experiment: greenhouse pre-emergence herbicidal test; format: in vivo, Lolium multiflorum; settings: pre-emergence method, application rate 1.000 kg/ha, scale from 0 to 100
Excerpt: as §1, §7, §8, §3, §4, §5, §6

DIGSA = experiment: greenhouse pre-emergence herbicidal test; format: in vivo, Digitaria sanguinalis; settings: pre-emergence method, application rate 1.000 kg/ha, scale from 0 to 100
Excerpt: as §1, §7, §8, §3, §4, §5, §6

SETVI [4] = experiment: greenhouse post-emergence herbicidal test; format: in vivo, Setaria viridis; settings: post-emergence method, application rate 0.250 kg/ha, scale from 0 to 100
Excerpt: as §1, §2, §3, §4, §5, §6

For “5-[(3,5-difluorophenyl)carbamoyl]-hydrofuran-5-carboxylic acid [compound 1.7]”, which “herbicidal activity against ALOMY” value (ALOMY; application rate 0.500 kg/ha) is on record?
Its value is “very good (a very good herbicidal activity is given at values of 90 to 100)”.

What about the “herbicidal activity against ECHCG” value (ECHCG; application rate 0.500 kg/ha) of the same compound?
The value was “good (A good herbicidal activity is given at values of 70 to <90)”.

What about the “herbicidal activity against SETFA” value (SETFA) of the same compound?
Its value is “good (A good herbicidal activity is given at values of 70 to <90)”.

What about the “herbicidal activity against APESV” value (APESV; application rate 0.500 kg/ha) of the same compound?
The value was “very good (a very good herbicidal activity is given at values of 90 to 100)”.

Which “herbicidal activity against AMARE” value (AMARE [1]; application rate 0.125 kg/ha) does the source give for `CC1=CCOC1(C(=O)O)C(=O)Nc1cc(Cl)cc(Cl)c1` (stereo not shown) [compound 1.6] here?
The value was “good (A good herbicidal activity is given at values of 70 to <90)”.

What about the “herbicidal activity against APESV” value (APESV; application rate 0.125 kg/ha) of the same compound?
The value was “good (A good herbicidal activity is given at values of 70 to <90)”.

For `CSCCOC(=O)C1(C(=O)Nc2cc(F)cc(F)c2)C=CCO1` (stereo not shown) [compound 1.9], which “herbicidal activity against SETVI” value (SETVI [2]) is on record?
The value was “very good (a very good herbicidal activity is given at values of 90 to 100)”.

For `CCOC(=O)C1(C(=O)Nc2cc(F)cc(F)c2)CC=CO1` (stereo not shown) [compound 1.25, ethyl 2-[(3,5-difluorophenyl)carbamoyl]-3H-furan-2-carboxylate], which “herbicidal activity against ALOMY” value (ALOMY; application rate 0.250 kg/ha) is on record?
Its value is “very good (a very good herbicidal activity is given at values of 90 to 100)”.

Which results are given for `O=C(O)C1(C(=O)Nc2cc(F)cc(F)c2)CC=CO1` (stereo not shown) [compound 1.26, 2-[(3,5-difluorophenyl)carbamoyl]-3H-furan-2-carboxylate]?
herbicidal activity against AVEFA (AVEFA): very good (a very good herbicidal activity is given at values of 90 to 100); herbicidal activity against AMARE (AMARE [3]): good (A good herbicidal activity is given at values of 70 to <90); herbicidal activity against LOLMU (LOLMU): very good (a very good herbicidal activity is given at values of 90 to 100); herbicidal activity against DIGSA (DIGSA): very good (a very good herbicidal activity is given at values of 90 to 100)

With `CCOC(=O)C1(C(=O)Nc2cc(Cl)cc(Cl)c2)CCO1` (stereo not shown) [compound 11.1, ethyl 2-[(3,5-dichlorophenyl)carbamoyl]oxetane-2-carboxylate] as the compound, how does the “herbicidal activity against ECHCG” value (ECHCG; application rate 1.000 kg/ha) read?
The value was “good (A good herbicidal activity is given at values of 70 to <90)”.

And the “herbicidal activity against APESV” value (APESV; application rate 1.000 kg/ha)?
Its value is “good (A good herbicidal activity is given at values of 70 to <90)”.

`O=C(O)C1(C(=O)Nc2cc(F)cc(F)c2)CCO1` (stereo not shown) [compound 11.5] was tested. Which “herbicidal activity against SETVI” value (SETVI [4]) did it give?
Its value is “very good (a very good herbicidal activity is given at values of 90 to 100)”.

With `CS(=O)(=O)CCOC(=O)C1(C(=O)Nc2cc(F)cc(F)c2)CCO1` (stereo not shown) [compound 11.8] as the compound, how does the “herbicidal activity against AMARE” value (AMARE [1]; application rate 0.250 kg/ha) read?
The value was “good (A good herbicidal activity is given at values of 70 to <90)”.
